Data as given in patent US5540917A, “Biomass lipase inhibitor useful for treating adiposity” (Hoffmann-La Roche Inc., priority 1992, dated 1996).

How the values were obtained:
[1] = system: fat absorption; test: Fat absorption from test meal in dogs (C-14 triolein recovery in feces), THL with or without cellulose; type: in vivo; settings: for Triolein absorption in % of the applied dose: 26 g fat
Text: Female dogs aged 7 to 15 years and having a body weight between 13 and 22 kg are divided into 2 groups each of 6 animals. The animals are fed with a standard dog food. The animals have free access to drinking water. The animals are given a test meal on the day of the test. This test meal contains as feed components 7.5% protein, 19% is carbohydrate, 6% fat, 1.6% minerals, 45% water and 20% ballast materials. The fat of the feed consists of 58% olive oil treated with C-14 triolein. The remaining fat is composed predominantly of saturated fatty acids. The absorption of the fat administered orally with the test diet was measured on the basis of the recovered radioactivity in the feces of the dogs. The difference between the orally-administered amount of C-14 labelled triolein and the radioactivity found in the feces within three days after intake of the test meal is considered to be absorbed fat. The absorbed amount is given as a percentage of the administered amount. The lower the absorption is, that is, the lower the percentage is, then the greater is the activity of the lipase inhibitor.

[2] = Consistency of feces of the dogs; type: in vivo
[3] = Blood plasma total glycerol in dogs after a test meal with THL and cellulose; type: in vivo; settings: 50 mg THL + 80 g cellulose
Text: Female dogs aged 7 to 15 years and having a body weight between 13 and 22 kg are divided into 2 groups each of 6 animals. The animals are fed with a standard dog food. The animals have free access to drinking water. The animals are given a test meal on the day of the test. This test meal contains as feed components 7.5% protein, 19% is carbohydrate, 6% fat, 1.6% minerals, 45% water and 20% ballast materials. The fat of the feed consists of 58% olive oil treated with C-14 triolein. The remaining fat is composed predominantly of saturated fatty acids. The blood plasma concentrations with respect to total glycerol of dogs which received test diet of 50 mg THL +80 g cellulose have been compared in Table 2 with those of a control without THL, but with cellulose.

[4] = system: fat absorption; test: Fat absorption (C-14 triolein) in mice on fat diet, single and repeated administration of LOC; type: in vivo, Albino mice; settings: LOC 50 mg/kg body wt.
Text: Determination of the activity of a lipase inhibitor using the lipstatin derivative LOC defined above, by way of example, on the fat s absorption from the feed in the case of single and repeated administration to mice was undertaken.
3 Albino mice weighing 25 g were used per dose in the test.
The mice received over several days a so-called fat diet in which the fat content was adjusted such that the mice received 23.4 g of fat per kg body wt. per day. The mice were fed with this feed for 8 days. On days 3 to 6 of the test C-14, labelled triolein and LOC in a dose of 50 mg/kg body weight were admixed with this feed. The feces of the mice was collected at intervals of 24 hours from days 4 to 8 of the test and evaluated according to the guidelines given in Example 1.
The control animals each received the test diet without the LOC active substance.
The absorption of the orally administered fat was measured as in Examples 1, and 2.

[5] = system: fat absorption; test: Dog test: fat absorption (C-14 triolein), LST in the fermentation cake alone or with cellulose; type: in vivo, dogs; settings: even when present in a fermentation cake; confirms mouse test
Text: Female dogs aged 7 to 15 years and having a body weight between 13 and 22 kg are divided into 2 groups each of 6 animals. The animals are fed with a standard dog food. The animals have free access to drinking water.
The animals are given a test meal on the day of the test. This test meal contains as feed components 7.5% protein, 19% is carbohydrate, 6% fat, 1.6% minerals, 45% water and 20% ballast materials. The fat of the feed consists of 58% olive oil treated with C-14 triolein. The remaining fat is composed predominantly of saturated fatty acids.
The absorption of the fat administered orally with the test diet was measured on the basis of the recovered radioactivity in the feces of the dogs. The difference between the orally-administered amount of C-14 labelled triolein and the radioactivity found in the feces within three days after intake of the test meal is considered to be absorbed fat. The absorbed amount is given as a percentage of the administered amount. The lower the absorption is, that is, the lower the percentage is, then the greater is the activity of the lipase inhibitor.
Microbiologically-produced lipstatin (LST) is used as the lipase inhibitor in both parts of the test. […] The content of LST in the cake was determined at 4 g of LST per kg of fresh fermentation cake using conventional analytical methods. […]

[6] = system: fat absorption; test: Mouse test: fat absorption (C-14 triolein), pure LST versus LST in a fermentation cake; type: in vivo; settings: oral, 3 mice
Procedure: Microbiologically-produced lipstatin (LST) is used as the lipase inhibitor in both parts of the test. LST is equivalent as a chemically pure substance with LST as a component of a fermentation cake produced according to Example 4 of EP 129 748. The content of LST in the cake was determined at 4 g of LST per kg of fresh fermentation cake using conventional analytical methods.
a) Mouse test Comparison of chemically pure LST with LST as a component of a fermentation cake.
Pure LST or the dried fermentation cake was suspended in 5% gum arabic/5% lactose preparation, conventional in pharmacological tests, and administered orally to animals, which had been pre-fasted for 24 hours, in an amount of 10 ml/kg per mouse immediately after a liquid test meal. The test meal contained 2.5% starch, 24% glucose, 12% lactose and 7.6% olive oil labelled with C-14 triolein. Thereafter, the mice received a conventional standard feed.
The calculation of the absorbed fat in the feed was carried out as described in Example 1.
The results of the test are reported in Table 3 in which the LST dose is calculated per mg/kg body weight. The values are average values calculated from measurements on, in each case, 3 mice per test.

In the case of `CCCCCCCCCCC[C@@H](C[C@@H]1OC(=O)[C@H]1CCCCCC)OC(=O)[C@H](CC(C)C)NC=O` [THL, tetrahydrolipstatin], the attenuated fat absorption ([1]; 50 mg THL + 80 g cellulose) is reported as 28%, the “Triolein absorption in % of the applied dose” value ([1]; THL 20 mg/test meal (1.5 mg/kg body wt.) + 80 g cellulose, 420 g test meal) is reported as 48% and the “Triolein absorption in % of the applied dose” value ([1]; THL 20 mg/test meal (1.5 mg/kg body wt.), no cellulose, 340 g test meal) is reported as 70%. The “Triolein absorption in % of the applied dose” value ([1]; THL 50 mg/test meal (4 mg/kg body wt.) + 80 g cellulose, 420 g test meal) was 28%, the “Triolein absorption in % of the applied dose” value ([1]; THL 50 mg/test meal (4 mg/kg body wt.), no cellulose, 340 g test meal) was 63% and the “activity of the lipase inhibitor when cellulose is added” value ([1]; THL + cellulose versus THL alone) was “considerably increased”. For the same molecule, the “inhibition of the absorption of the administered radioactively labelled fat in the feed” value ([1]; THL after addition of cellulose (about)) was 52-70%, the “reduction of the absorption of fat contained in the feed” value ([1]; THL as sole additive to the test meal, depending on the dose (20 or 50 mg/meal)) was 30-37% and the “consistency of the feces” value ([2]; THL in combination with cellulose) was “solid and formed”. The “consistency of the feces” value ([2]; THL without cellulose) was “rather pulp-like”, the Total plasma glycerol ([3]; 3 hrs. after administration) was 0.5 ± 0.02 mmol/l ± SEM and the Total plasma glycerol ([3]; 7 hrs. after administration) was 0.9 ± 0.13 mmol/l ± SEM. For the same molecule, the Total plasma glycerol ([3]; before administration (starting value)) was 0.7 ± 0.07 mmol/l ± SEM, the plasma glycerol increase ([3]; 3 hours after test meal) was “no increase” and the “increase in the absorption” value ([3]; 7 hours postprandial) was “slight increase”.

With `CCCCCCCCCCCCCCCCC[C@@H](C[C@@H]1OC(=O)[C@H]1CC)OC(=O)[C@H](CC(C)C)NC=O` [LOC, N-formyl-L-leucine (S)-1-[[(2S,3S)-3-ethyl-4-oxo-2-oxetanyl]methyl]octadecyl ester] the “Triolein absorption in % of the amount given orally (±SDM)” value ([4]; 1st day) was 26 ± 4% and the “Triolein absorption in % of the amount given orally (±SDM)” value ([4]; 4th day) was 26 ± 3%.

For `CCCCCCCCCCC[C@@H](C[C@@H]1OC(=O)[C@H]1CCCCCC)OC(=O)[C@H](CC(C)C)NC=O` [pure LST, lipstatin], the lipase inhibitor activity [5] was “very active lipase inhibitor”, the “Triolein absorption in % per dose administered” value ([6]; LST dose 5.0 mg/kg) was 69% and the “Triolein absorption in % per dose administered” value ([6]; LST dose 15 mg/kg) was 52%. The “Triolein absorption in % per dose administered” value ([6]; LST dose 50.0 mg/kg) was 41%.
